Assay results taken from ChEMBL document CHEMBL1149774, “Synthesis of N-(5,7-diamino-3-phenyl-quinoxalin-2-yl)-3,4,5-substituted anilines and N-[4[(5,7-diamino-3-phenylquinoxalin-2-yl)amino]benzoyl]-l-glutamic acid diethyl ester: evaluation of in vitro anti-cancer and anti-folate activities” (Eur J Med Chem, 2008).

Key:
Type in all cases: functional
CAKI-1 = test: Growth inhibition of human CAKI1 cells after 48 hrs by SRB staining method; settings: CAKI-1, 48 h
SF-268 = test: Growth inhibition of human SF268 cells after 48 hrs by SRB staining method; settings: SF-268, 48 h
[1] = Growth inhibition of human HS 578T cells after 48 hrs by SRB staining method
HCT-116 = test: Growth inhibition of human HCT116 cells after 48 hrs by SRB staining method; settings: HCT-116, 48 h
T47D = test: Growth inhibition of human T47D cells after 48 hrs by SRB staining method
ACHN = test: Growth inhibition of human ACHN cells after 48 hrs by SRB staining method
TK-10 = test: Growth inhibition of human TK10 cells after 48 hrs by SRB staining method; settings: TK-10, 48 h
UO-31 = test: Growth inhibition of human UO31 cells after 48 hrs by SRB staining method; settings: UO-31, 48 h
OVCAR-3 = test: Growth inhibition of human OVCAR-3 cells after 48 hrs by SRB staining method; settings: OVCAR-3, 48 h
HOP-62 = test: Growth inhibition of human HOP62 cells after 48 hrs by SRB staining method; settings: HOP-62, 48 h
786-0 = test: Growth inhibition of human 786-0 cells after 48 hrs by SRB staining method; settings: 786-0, 48 h
IGROV-1 = test: Growth inhibition of human IGROV1 cells after 48 hrs by SRB staining method; settings: IGROV-1, 48 h
OVCAR-5 = test: Growth inhibition of human OVCAR5 cells after 48 hrs by SRB staining method; settings: OVCAR-5, 48 h
OVCAR-4 = test: Growth inhibition of human OVCAR4 cells after 48 hrs by SRB staining method; settings: OVCAR-4, 48 h
NCI-H522 = test: Growth inhibition of human NCI-H522 cells after 48 hrs by SRB staining method; settings: NCI-H522, 48 h
SW-620 = test: Growth inhibition of human SW620 cells after 48 hrs by SRB staining method; settings: SW-620, 48 h
NCI-H226 = test: Growth inhibition of human NCI-H226 cells after 48 hrs by SRB staining method; settings: NCI-H226, 48 h
UACC-62 = test: Growth inhibition of human UACC62 cells after 48 hrs by SRB staining method; settings: UACC-62, 48 h
RPMI-8226 = test: Growth inhibition of human RPMI8226 cells after 48 hrs by SRB staining method; settings: RPMI-8226, 48 h
DU-145 = test: Growth inhibition of human DU145 cells after 48 hrs by SRB staining method; settings: DU-145, 48 h
NCI/ADR-RES = test: Growth inhibition of human NCI/ADR-RES cells after 48 hrs by SRB staining method
PC-3 = test: Growth inhibition of human PC3 cells after 48 hrs by SRB staining method; settings: PC-3, 48 h
RXF 393 = test: Growth inhibition of human RXF393 cells after 48 hrs by SRB staining method; settings: RXF 393, 48 h
EKVX = test: Growth inhibition of human EKVX cells after 48 hrs by SRB staining method
HCT-15 = test: Growth inhibition of human HCT15 cells after 48 hrs by SRB staining method; settings: HCT-15, 48 h
NCI-H23 = test: Growth inhibition of human NCI-H23 cells after 48 hrs by SRB staining method; settings: NCI-H23, 48 h
SF-295 = test: Growth inhibition of human SF295 cells after 48 hrs by SRB staining method; settings: SF-295, 48 h
SNB-19 = test: Growth inhibition of human SNB19 cells after 48 hrs by SRB staining method; settings: SNB-19, 48 h
U-251 = test: Growth inhibition of human U251 cells after 48 hrs by SRB staining method; settings: U-251, 48 h
HL-60 = test: Growth inhibition of human HL60 cells after 48 hrs by SRB staining method; settings: HL-60, 48 h
SK-MEL-2 = test: Growth inhibition of human SK-MEL-2 cells after 48 hrs by SRB staining method; settings: SK-MEL-2, 48 h
[2] = read-out: pLC50 (the source's name) (converted)

Structure (SMILES): CCOC(=O)CCC(NC(=O)c1ccc(Nc2nc3cc(N)cc(N)c3nc2-c2ccccc2)cc1)C(=O)OCC (configuration not stated)
- GI50 (CAKI-1): 27.5 µM
- CC50 (CAKI-1; [2]): > 100 µM
- TGI (CAKI-1; read-out: pTGI (converted)): > 100 µM
- GI50 (SF-268): 23.4 µM
- CC50 (SF-268; [2]): > 100 µM
- TGI (SF-268; read-out: pTGI (converted)): > 100 µM
- GI50 [1]: 33.9 µM
- CC50 [1, 2]: > 100 µM
- TGI ([1]; read-out: pTGI (converted)): 75.9 µM
- GI50 (HCT-116): 15.1 µM
- LC50 (HCT-116): > 100 µM
- TGI (HCT-116; read-out: pTGI (converted)): 51.3 µM
- GI50 (T47D): 1.66 µM
- CC50 (T47D; [2]): > 100 µM
- TGI (T47D; read-out: pTGI (converted)): 4.9 µM
- GI50 (ACHN): 12.9 µM
- CC50 (ACHN; [2]): > 100 µM
- TGI (ACHN; read-out: pTGI (converted)): 46.8 µM
- GI50 (TK-10): 33.1 µM
- CC50 (TK-10; [2]): > 100 µM
- TGI (TK-10; read-out: pTGI (converted)): 75.9 µM
- GI50 (UO-31): 21.9 µM
- CC50 (UO-31; [2]): > 100 µM
- TGI (UO-31; read-out: pTGI (converted)): 75.9 µM
- GI50 (OVCAR-3): 8.51 µM
- LC50 (OVCAR-3): > 100 µM
- TGI (OVCAR-3; read-out: pTGI (converted)): 31.6 µM
- GI50 (HOP-62): 19.5 µM
- LC50 (HOP-62): 81.3 µM
- TGI (HOP-62; read-out: pTGI (converted)): 39.8 µM
- GI50 (786-0): 17.8 µM
- CC50 (786-0; [2]): 77.6 µM
- TGI (786-0; read-out: pTGI (converted)): 37.2 µM
- GI50 (IGROV-1): 6.31 µM
- LC50 (IGROV-1): > 100 µM
- TGI (IGROV-1; read-out: pTGI (converted)): 89.1 µM
- GI50 (OVCAR-5): 34.7 µM
- LC50 (OVCAR-5): > 100 µM
- TGI (OVCAR-5; read-out: pTGI (converted)): 87.1 µM
- GI50 (OVCAR-4): 26.9 µM
- LC50 (OVCAR-4): > 100 µM
- TGI (OVCAR-4; read-out: pTGI (converted)): > 100 µM
- GI50 (NCI-H522): 27.5 µM
- LC50 (NCI-H522): > 100 µM
- TGI (NCI-H522; read-out: pTGI (converted)): > 100 µM
- GI50 (SW-620): 40.7 µM
- CC50 (SW-620; [2]): > 100 µM
- TGI (SW-620; read-out: pTGI (converted)): > 100 µM
- GI50 (NCI-H226): 26.9 µM
- LC50 (NCI-H226): > 100 µM
- TGI (NCI-H226; read-out: pTGI (converted)): 55 µM
- GI50 (UACC-62): 3.55 µM
- LC50 (UACC-62): 64.6 µM
- TGI (UACC-62; read-out: pTGI (converted)): 14.5 µM
- GI50 (RPMI-8226): 3.16 µM
- CC50 (RPMI-8226; [2]): > 100 µM
- TGI (RPMI-8226; read-out: pTGI (converted)): > 100 µM
- GI50 (DU-145): 44.7 µM
- CC50 (DU-145; [2]): > 100 µM
- TGI (DU-145; read-out: pTGI (converted)): > 100 µM
- GI50 (NCI/ADR-RES): 19.5 µM
- CC50 (NCI/ADR-RES; [2]): > 100 µM
- TGI (NCI/ADR-RES; read-out: pTGI (converted)): 63.1 µM
- GI50 (PC-3): 21.4 µM
- CC50 (PC-3; [2]): > 100 µM
- TGI (PC-3; read-out: pTGI (converted)): 91.2 µM
- GI50 (RXF 393): 24.5 µM
- TGI (RXF 393; read-out: pTGI (converted)): 85.1 µM
- GI50 (EKVX): 28.8 µM
- CC50 (EKVX; [2]): > 100 µM
- TGI (EKVX; read-out: pTGI (converted)): > 100 µM
- GI50 (HCT-15): 23.4 µM
- LC50 (HCT-15): > 100 µM
- TGI (HCT-15; read-out: pTGI (converted)): > 100 µM
- GI50 (NCI-H23): 18.6 µM
- LC50 (NCI-H23): > 100 µM
- TGI (NCI-H23; read-out: pTGI (converted)): 55 µM
- GI50 (SF-295): 17.8 µM
- LC50 (SF-295): > 100 µM
- TGI (SF-295; read-out: pTGI (converted)): 43.7 µM
- GI50 (SNB-19): 21.4 µM
- LC50 (SNB-19): > 100 µM
- TGI (SNB-19; read-out: pTGI (converted)): > 100 µM
- GI50 (U-251): 20 µM
- LC50 (50% lethal concentration) (U-251): 95.5 µM
- TGI (U-251; read-out: pTGI (converted)): 43.7 µM
- GI50 (HL-60): 9.55 µM
- CC50 (HL-60; [2]): > 100 µM
- TGI (HL-60; read-out: pTGI (converted)): 51.3 µM
- GI50 (SK-MEL-2): 7.76 µM
- LC50 (SK-MEL-2): > 100 µM
- TGI (SK-MEL-2; read-out: pTGI (converted)): 74.1 µM
